The results in this text go back to PMC4938538, “Inhibition of Pig Phosphoenolpyruvate Carboxykinase Isoenzymes by 3-Mercaptopicolinic Acid and Novel Inhibitors” (PLoS ONE, 2016).

Data set [1] addresses T1, PEPCK-C 139L (Sus scrofa, UniProt A0A4X1UM84, M139L).
T1 construct: His-tag (cleaved yes); made in house; host or cells: Escherichia coli BL21 (DE3)
T1 sequence (A0A4X1UM84 1-622 M139L): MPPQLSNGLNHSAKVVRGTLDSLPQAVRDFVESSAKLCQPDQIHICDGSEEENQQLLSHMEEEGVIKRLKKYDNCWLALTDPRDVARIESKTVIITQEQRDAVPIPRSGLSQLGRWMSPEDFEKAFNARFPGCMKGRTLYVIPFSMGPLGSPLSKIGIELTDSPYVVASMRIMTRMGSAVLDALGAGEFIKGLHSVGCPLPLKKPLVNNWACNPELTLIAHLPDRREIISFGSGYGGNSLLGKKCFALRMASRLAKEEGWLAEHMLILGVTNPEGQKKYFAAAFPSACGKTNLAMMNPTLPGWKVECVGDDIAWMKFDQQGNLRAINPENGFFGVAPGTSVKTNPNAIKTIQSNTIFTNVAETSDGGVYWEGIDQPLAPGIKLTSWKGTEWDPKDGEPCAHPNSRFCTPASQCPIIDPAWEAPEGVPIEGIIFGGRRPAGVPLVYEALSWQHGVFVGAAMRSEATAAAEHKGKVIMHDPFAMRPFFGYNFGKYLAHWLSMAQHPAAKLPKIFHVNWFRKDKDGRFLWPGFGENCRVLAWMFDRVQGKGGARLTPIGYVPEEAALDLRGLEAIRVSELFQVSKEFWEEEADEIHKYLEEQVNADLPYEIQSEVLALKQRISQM
Put plainly: Isothermal titration calorimetry (ITC). Type of data set: binding, pig. As to conditions: 139Leu; for Kd / ΔH: 25°C. As for the experimental part: (§1) The reference cell was filled with distilled water. […] 2 mM GTP was also added to the enzyme solution in the corresponding experiments. […] In all the assays, a total of 19 injections of 2 μL were added sequentially to the sample cell with a 150 s spacing to ensure that the thermal power signal returned to the baseline prior to the next injection. The binding isotherms (normalized heat effect as a function of the molar ratio) were analyzed with Origin 7 (OriginLab) using a single class of binding sites model. Calorimetric assays were perform in duplicates at least.
(In ITC the heat of successive injections is recorded.)

In data set [2] the target is T2, PEPCK-C 139M (Sus scrofa, UniProt A0A4X1UM84).
T2 construct: His-tag (cleaved yes); made in house; host or cells: Escherichia coli BL21 (DE3)
T2 sequence (A0A4X1UM84 1-622): T1 sequence (A0A4X1UM84 1-622 M139L) with L139M
Description: Isothermal titration calorimetry (ITC). Format: binding, pig. As to conditions: 139Met; for Kd / ΔH: 25°C. As for the experimental part: as §1

A short description of data set [3]: Solubility / precipitation in the enzymatic assay. Format: physicochemical. As to the method: Assays to calculate IC50 values were performed in the direction of OAA synthesis in 1 mL of a 100 mM HEPES buffer pH 7.4, containing 10 mM DTT, 0.2 mM MnCl2, 2 mM MgCl2, 2 mM GDP, 0.2 mM NADH, 2 mM PEP, 100 mM KHCO3 and 4 units of malate dehydrogenase. Variable inhibitor concentrations of 0–200 μM were also used. Assays were initiated by PEPCK-C addition. Rates were calculated by measuring the decreasing slope of absorbance at 340 nm after subtracting the rate of spontaneous NADH oxidation.

For data set [4], the system named is pyruvate kinase and lactate dehydrogenase. Put plainly: Inhibition of auxiliary enzymes. Type of data set: biochemical. The settings on record: 25–200 μM compound; data not shown. The text has this:
Reactions were initiated by addition of 0.5 units of each pyruvate kinase and lactate dehydrogenase.

The test system of data set [5] is PEPCK-C 139Met. Description: Thermal-shift screening of chemical library (ANS fluorescence). Format: binding, pig. The settings on record: 25 μM compound, 4 μM PEPCK-C. As for the experimental part: PEPCK-C effectors were identified from a chemical library using a screening procedure based on a thermal-shift assay. Potential protein effector compounds were dispensed into 96-well microplates. Each well contained 4 μM PEPCK-C in a 20 mM HEPES buffer pH 7.4, plus 1 mM TCEP, 100 μM ANS, 10% DMSO and either 1 or 5 chemical library compounds, each at a 25 μM concentration. […] 50 μL of mineral oil were added to each well to prevent evaporation. In a first screening round, 5 different compounds were present in each well. The binding of effectors to PEPCK-C was assessed by monitoring the thermal denaturation of the enzyme and identifying compounds inducing a stabilizing effect (increase in the unfolding temperature, Tm, compared to the free enzyme) in a FluoDia T70 High Temperature Fluorescence Microplate Reader (Photon Technology International, UK). To obtain Tm values, unfolding curves were fitted to Boltzmann function (Eq 1) using OriginPro 9.1 software. y(T) = A1−A2/1+exp(T−Tm/S)+A2 (1) where A1 and A2 are the asymptotic values of the signal in the pre- and post-transition region of the unfolding curve, respectively, and S is a parameter associated with the slope of the unfolding curve at the Tm and related to the unfolding enthalpy of the enzyme. […] In a second round, the compounds present in the positive wells were individually analyzed to identify the binders.

Where [6] appears, read: stated for both isoenzymes, with and without GTP.

Substitutions are numbered along the chain they refer to.

As to `O=C(O)c1ncccc1S` [3-MP, 3-mercaptopicolinic acid], the Kd in data set [1] (+GTP (2 mM)) came to 39 µM; in data set [1] (-GTP) it was 12 µM; in data set [2] (+GTP (2 mM)), 19 µM; in data set [2] (-GTP), 7.2 µM. For the same molecule, the ΔH is recorded as -58.2 kcal/mol in data set [1] (+GTP (2 mM)), -32.6 kcal/mol in data set [1] (-GTP), -31.8 kcal/mol in data set [2] (+GTP (2 mM)) and -20.4 kcal/mol in data set [2] (-GTP).

With `CC(=NNC(=S)NC1CCCCC1)c1sc(-c2cccs2)nc1C` [compound 1, N1-cyclohexyl-2-{1-[4-methyl-2-(2-thienyl)-1,3-thiazol-5-yl]ethylidene}hydrazine-1-carbothiamide], the “Solubility (in words)” value in data set [3] was “poor solubility”. In data set [4], the “Inhibition of / interaction with auxiliary enzymes” value was “slight inhibition”. Also, the “Increase in Tm compared with controls” value in data set [5] is “around 8 °C”.

Regarding `Cn1nc(-c2ccc(C=NNC(=O)c3ccc(Cl)cc3Cl)s2)cc1C(F)(F)F` [compound 2, N'1-({5-[1-methyl-5-(trifluoromethyl)-1H-pyrazol-3-yl]-2-thienyl}methylidene)-2,4-dichlorobenzene-1-carbohydrazide], in data set [3], the “Solubility (in words)” value is “poor solubility”. The Kd was determined as 14 µM in data set [1] (+GTP (2 mM)), 9.8 µM in data set [1] (-GTP), 19 µM in data set [2] (+GTP (2 mM)) and 4.4 µM in data set [2] (-GTP). Moreover, the ΔH in data set [1] (+GTP (2 mM)) is -13.9 kcal/mol; in data set [1] (-GTP), -16.7 kcal/mol; in data set [2] (+GTP (2 mM)), -26.6 kcal/mol; in data set [2] (-GTP) it was -20.5 kcal/mol. The “n (stoichiometry, number of binding sites), all experiments” value in data set [1] (setting [6]) and in data set [2] (setting [6]) was around 1 in each case. Also, in data set [4], the “Inhibition of / interaction with auxiliary enzymes” value is “slight interaction”. Moreover, in data set [5], the “Increase in Tm compared with controls” value is “around 8 °C”.

A word on the Kd: it is the constant that tells how readily two partners part at equilibrium.
